Results taken from article PMC6934184, “Selective DNA-PKcs inhibition extends the therapeutic index of localized radiotherapy and chemotherapy” (The Journal of Clinical Investigation, 2019).

Biological target: T1, FGFR3 K650M (Homo sapiens, UniProt P22607, K650M)
T1 construct: purchased Thermo Fisher Scientific (Life Technologies) SelectScreen
Assay: SelectScreen LanthaScreen
Assay type: binding
Details: read-out: % displacement
Method in brief: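 NU5455 was profiled across the SelectScreen Broad panel of kinase activity and binding assays. Z'LYTE reactions such as CSF1R ran at apparent Km ATP, while the Adapta CAMK1 assay used ATP listed as 10. Values are given as percent.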

T1 sequence (P22607 23-806 K650M): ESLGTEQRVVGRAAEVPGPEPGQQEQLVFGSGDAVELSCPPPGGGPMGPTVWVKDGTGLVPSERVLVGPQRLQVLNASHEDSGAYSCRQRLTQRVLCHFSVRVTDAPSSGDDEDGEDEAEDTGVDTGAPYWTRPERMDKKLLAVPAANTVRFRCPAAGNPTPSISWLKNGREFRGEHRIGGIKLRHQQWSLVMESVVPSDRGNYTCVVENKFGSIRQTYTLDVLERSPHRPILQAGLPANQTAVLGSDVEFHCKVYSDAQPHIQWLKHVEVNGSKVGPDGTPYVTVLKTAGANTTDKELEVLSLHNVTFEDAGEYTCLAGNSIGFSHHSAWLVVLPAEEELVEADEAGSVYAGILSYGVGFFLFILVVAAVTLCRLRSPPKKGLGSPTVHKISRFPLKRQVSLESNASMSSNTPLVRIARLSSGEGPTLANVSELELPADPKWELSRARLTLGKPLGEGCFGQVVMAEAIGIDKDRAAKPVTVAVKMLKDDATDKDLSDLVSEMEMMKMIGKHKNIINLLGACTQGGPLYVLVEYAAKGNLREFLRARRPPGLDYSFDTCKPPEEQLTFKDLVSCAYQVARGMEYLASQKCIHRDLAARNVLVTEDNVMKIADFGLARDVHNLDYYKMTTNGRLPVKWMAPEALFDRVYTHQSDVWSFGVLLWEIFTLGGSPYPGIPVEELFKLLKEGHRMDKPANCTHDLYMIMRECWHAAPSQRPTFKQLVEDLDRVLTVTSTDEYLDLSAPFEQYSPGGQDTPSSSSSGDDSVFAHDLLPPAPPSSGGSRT

Question: Which inhibition at 1 µM does the source give for `CN(C(=O)CN1CCOCC1)c1ccc2sc3c(-c4cccc5c(=O)cc(N6CC7CCC(C6)O7)oc45)cccc3c2c1` [NU5455] here?
Answer: 16.5%
